In assay [1] the test system is Lytechinus pictus. The experiment in a line: Inhibition of SERCA in sea urchin eggs assessed as Ca2+ leak rate. Details: scale not given: the % may be the effect or the level left.
Assay [2] in a line: Inhibition of SERCA in sea urchin eggs assessed as Ca2+ leak rate at 10 uM relative to thapsigargin. Also on record: species or system Lytechinus pictus.
For assay [3], the system named is Lytechinus pictus. The experiment in a line: Inhibition of SERCA in sea urchin eggs assessed as Ca2+ leak rate at 10 uM.

This passage reports Activity and Ki results from ChEMBL document CHEMBL1141773, “SERCA-inhibiting activity of C-19 terpenolides from Thapsia garganica and their possible biogenesis” (J Nat Prod, 2005).

On to `C=C[C@@]1(C)CC[C@H]2[C@](C)(COC(C)=O)[C@H]3C=C4C=C(OC)OC(=O)[C@@H]1[C@@]42OC3=O`, for which, in the assay on Lytechinus pictus [1], the Activity is 64.2%.

As for `C/C=C(/C)C(=O)O[C@H]1C(C)=C2[C@H]([C@@H]1OC(=O)CCCCCCC)[C@@](C)(OC(C)=O)C[C@H](OC(=O)CCC)[C@@]1(O)[C@H]2OC(=O)[C@@]1(C)O` [THAPSIGARGIN], in assay [2], the Ki turned out to be 2 pM. Also, the Activity in the assay on Lytechinus pictus [3] came to 81 RFU/min.

As to `C=C[C@@]1(C)CC[C@H]2[C@](C)(C(=O)OC)[C@H]3C=C4C=C(OC)OC(=O)[C@@H]1[C@@]42OC3=O`, the Activity in the assay on Lytechinus pictus [1] was 61.4%.

For the molecule `C=C[C@@]1(C)CC[C@H]2C(C)(C)[C@H]3C=C4C=C(OC)OC(=O)[C@@H]1[C@@]42OC3=O`, the Activity in the assay with Lytechinus pictus [1] stood at 65.4%.

On to `C=C[C@]1(C)CC[C@H]2C(C)(C)[C@H]3C=C4C=C(OC)OC(=O)[C@@H]1[C@@]42OC3=O`, for which the Activity in the assay with Lytechinus pictus [1] amounted to 65.4%.
